{"source": "patent US8697739B2", "about": "“Bicyclic acetyl-CoA carboxylase inhibitors and uses thereof” (Novartis AG, priority 2010, dated 2014)", "note": "pIC50: −log10 of the molar value.", "data": [{"target": "T1, human acetyl-CoA carboxylase 2 (ACC2) (Homo sapiens, UniProt O00763)", "T1 construct": "The cDNA encoding amino acids 144 to 2458 of human acetyl-CoA carboxylase 2; made in house; host or cells: Sf9 insect cells (baculovirus, pFastBac1)", "T1 sequence (O00763 144-2458)": "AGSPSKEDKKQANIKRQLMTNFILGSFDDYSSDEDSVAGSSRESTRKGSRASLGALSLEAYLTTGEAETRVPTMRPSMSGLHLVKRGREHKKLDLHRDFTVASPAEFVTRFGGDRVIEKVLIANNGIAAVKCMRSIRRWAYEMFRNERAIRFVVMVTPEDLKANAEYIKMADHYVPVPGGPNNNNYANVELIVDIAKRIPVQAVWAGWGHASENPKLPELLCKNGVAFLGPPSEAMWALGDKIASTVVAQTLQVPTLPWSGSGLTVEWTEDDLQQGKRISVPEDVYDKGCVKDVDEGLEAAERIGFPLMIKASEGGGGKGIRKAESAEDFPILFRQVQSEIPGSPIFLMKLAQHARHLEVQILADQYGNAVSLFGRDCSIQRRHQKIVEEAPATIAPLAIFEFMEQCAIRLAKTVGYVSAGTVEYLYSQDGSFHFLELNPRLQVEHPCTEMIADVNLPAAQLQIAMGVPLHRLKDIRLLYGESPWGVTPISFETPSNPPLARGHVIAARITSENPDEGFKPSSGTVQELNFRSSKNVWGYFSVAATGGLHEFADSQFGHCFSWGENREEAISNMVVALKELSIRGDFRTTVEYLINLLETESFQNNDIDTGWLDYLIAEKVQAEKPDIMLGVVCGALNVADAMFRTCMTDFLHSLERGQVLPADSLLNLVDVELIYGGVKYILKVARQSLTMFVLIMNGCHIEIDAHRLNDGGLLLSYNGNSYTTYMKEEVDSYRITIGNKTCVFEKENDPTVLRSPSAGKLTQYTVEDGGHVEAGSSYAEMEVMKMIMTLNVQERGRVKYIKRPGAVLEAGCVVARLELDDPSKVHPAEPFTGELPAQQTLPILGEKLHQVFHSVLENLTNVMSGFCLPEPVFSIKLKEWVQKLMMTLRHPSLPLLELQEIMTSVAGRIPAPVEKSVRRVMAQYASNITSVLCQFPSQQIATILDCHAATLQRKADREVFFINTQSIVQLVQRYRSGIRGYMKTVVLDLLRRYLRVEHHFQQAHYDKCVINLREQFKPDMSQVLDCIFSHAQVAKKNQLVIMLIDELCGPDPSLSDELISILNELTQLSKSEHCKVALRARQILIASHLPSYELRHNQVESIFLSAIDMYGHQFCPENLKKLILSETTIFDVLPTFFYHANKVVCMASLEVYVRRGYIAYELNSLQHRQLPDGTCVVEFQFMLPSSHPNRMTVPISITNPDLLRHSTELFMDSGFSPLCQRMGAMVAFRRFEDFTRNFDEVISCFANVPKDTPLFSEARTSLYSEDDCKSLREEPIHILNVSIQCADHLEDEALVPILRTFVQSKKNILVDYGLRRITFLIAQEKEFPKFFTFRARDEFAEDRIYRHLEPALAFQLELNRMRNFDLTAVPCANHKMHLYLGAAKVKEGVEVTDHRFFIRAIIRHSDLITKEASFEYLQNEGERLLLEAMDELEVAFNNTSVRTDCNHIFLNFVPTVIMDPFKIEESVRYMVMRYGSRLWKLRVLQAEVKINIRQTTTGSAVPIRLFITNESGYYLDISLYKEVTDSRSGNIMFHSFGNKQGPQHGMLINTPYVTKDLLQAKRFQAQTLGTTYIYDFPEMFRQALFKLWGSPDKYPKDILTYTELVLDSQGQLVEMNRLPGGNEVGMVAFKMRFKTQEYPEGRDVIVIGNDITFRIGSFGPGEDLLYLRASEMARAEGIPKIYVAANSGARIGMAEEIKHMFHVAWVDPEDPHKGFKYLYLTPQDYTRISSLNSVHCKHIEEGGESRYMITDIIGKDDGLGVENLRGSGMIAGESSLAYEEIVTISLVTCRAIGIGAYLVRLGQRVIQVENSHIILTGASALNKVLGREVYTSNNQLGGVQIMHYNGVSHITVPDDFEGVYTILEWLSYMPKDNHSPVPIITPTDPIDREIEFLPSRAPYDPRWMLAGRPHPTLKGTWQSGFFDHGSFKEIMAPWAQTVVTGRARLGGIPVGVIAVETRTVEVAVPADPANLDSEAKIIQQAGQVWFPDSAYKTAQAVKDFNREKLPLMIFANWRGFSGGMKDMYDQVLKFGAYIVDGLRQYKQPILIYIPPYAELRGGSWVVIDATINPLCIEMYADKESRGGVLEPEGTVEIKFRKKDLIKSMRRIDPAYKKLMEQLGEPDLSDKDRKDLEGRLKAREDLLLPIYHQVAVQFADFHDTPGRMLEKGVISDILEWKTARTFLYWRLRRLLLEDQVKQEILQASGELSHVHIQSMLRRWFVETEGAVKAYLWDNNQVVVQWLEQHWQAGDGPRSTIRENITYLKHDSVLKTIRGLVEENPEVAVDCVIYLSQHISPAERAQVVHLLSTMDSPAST", "assay": "Acetyl-CoA carboxylase enzyme assay (malonyl-CoA formation by LC/MS/MS)", "format": "biochemical", "details": "recombinant human ACC2 (aa 144-2458); read-out: IC50 ACC2", "description": "The cDNA encoding amino acids 144 to 2458 of human acetyl-CoA carboxylase 2 (ACC2, GenBank Accession #NM_001093) was cloned into the SalI and NotI sites of pFastBac1 (Invitrogen; Carlsbad, Calif.). The resulting plasmid was used to generate a recombinant ACC2 baculovirus that was amplified and titered according to the protocols in the Bac-to-Bac baculovirus expression system manual (Invitrogen). The titered virus was used to infect Sf9 cells grown in Ex-Cell 420 serum-free medium (JRH Biosciences; Lenexa, Kans.). At 48 hours post-infection, the cells were harvested and stored at −80° C. until purification. ACC2 was purified using ammonium sulfate precipitation and anion exchange chromatography.\nThe enzymatic assay was run as follows: 30 μL of reaction buffer (100 mM HEPES pH 7.5, 20 mM MgCl2, 20 mM potassium citrate, 2 mM DTT) was added to a 384-well microtiter plate followed by 2 μL of the test compound (or 100% DMSO control). ACC2 protein (10 μL of a 50 nM working solution) was added to plate, which was incubated at room temperature for 15 minutes. A 30 μL addition of substrate solution (50 μM acetyl-CoA, 120 μM ATP, 2 mM KHCO3) was used to initiate the reactions which were quenched with 6% acetic acid (40 μL). ACC catalyzed malonyl-CoA formation was detected by LC/MS/MS using a Cohesive Technologies LX Series multiplex LC/MSIMS system configured with four binary pumps (Agilent Technologies; Palo Alto, Calif.), a dual arm autosampler (Leap Technologies; Cary, N.C.), and one Quattro Micro triple quadrupole mass spectrometer (Waters, Milford, Mass.), all run by Aria Software version 1.5 (Cohesive Technologies; Franklin, Mass.). Four samples were injected (20 μL) onto four Phenosphere NEXT C18 30×2 mm 5 μm columns (Phenomenex; Torrance, Calif.), eluted by four separate pumps, running identical gradients, through a column switching manifold with the one outlet fitted to the electrospray (ESI) source. Malonyl-CoA was eluted with 5 mM ammonium acetate, pH 4.5 (Buffer A) and 100% acetonitrile (Buffer B) via a step gradient. Argon was used as the collision gas and the following species were monitored via MRM detection: malonyl-CoA (853.8>346.9), internal standard (A: [^13C3]-malonyl-CoA, 857>350). The lower limit of detection is 0.3 uM for malonyl-CoA in this assay.", "values": [{"smiles": "Cn1c(-c2ccc(CCC(=O)O)cc2)cc2ccc(S(=O)(=O)N[C@H]3CC[C@H](C(=O)N4CCC[C@H]4C(C)(C)C)CC3)cc21", "note": "[Example 399, 3-(4-(6-(N-((1S,4r)-4-((S)-2-tert-butylpyrrolidine-1-carbonyl)cyclohexyl)sulfamoyl)-1-methyl-1H-indol-2-yl)phenyl)propanoic acid]", "pIC50": 6.47}, {"smiles": "C[C@@H](NC(=O)[C@H]1CC[C@H](NS(=O)(=O)c2ccc3ccccc3c2)CC1)c1cccnc1", "note": "[Example 682, (1r,4R)-4-(naphthalene-2-sulfonamido)-N-((R)-1-(pyridin-3-yl)ethyl)cyclohexanecarboxamide]", "pIC50": 6.84}, {"smiles": "Cn1c(C2CC2)cc2ccc(S(=O)(=O)N[C@H]3CC[C@H](C(=O)N[C@@H](c4ccccc4)C(C)(C)O)CC3)cc21", "note": "[Example 355, (1r,4S)-4-(2-cyclopropyl-1-methyl-1H-indole-6-sulfonamido)-N-((S)-2-hydroxy-2-methyl-1-phenylpropyl)cyclohexanecarboxamide]", "pIC50": "> 8.00"}, {"smiles": "C[C@@H](NC(=O)[C@H]1CC[C@H](NS(=O)(=O)c2cnc3c(c2)CCCN3C)CC1)c1ccc(F)cc1", "note": "[Example 145, (1r,4R)-N-((R)-1-(4-fluorophenyl)ethyl)-4-(8-methyl-5,6,7,8-tetrahydro-1,8-naphthyridine-3-sulfonamido)cyclohexanecarboxamide]", "pIC50": 6.89}, {"smiles": "CC(C)OC(=O)c1ccc(NS(=O)(=O)c2ccc3[nH]c(Nc4cccc(Cl)c4)nc3c2)cc1", "note": "[Example 547, isopropyl 4-(2-(3-chlorophenylamino)-1H-benzo[d]imidazole-5-sulfonamido)benzoate]", "pIC50": 6.43}, {"smiles": "O=C(OCc1ccccc1)[C@H]1CC[C@H](NS(=O)(=O)c2ccc3nc(-c4ccccc4)[nH]c3c2)CC1", "note": "[Example 99, (1r,4r)-benzyl 4-(2-phenyl-1H-benzo[d]imidazole-6-sulfonamido)cyclohexanecarboxylate]", "pIC50": 6.31}, {"smiles": "O=C([C@H]1CC[C@H](NS(=O)(=O)c2ccc3c(c2)CCCN3)CC1)N1CCOCC1c1ccccc1", "note": "(stereo partly shown) [Example 177, N-((1r,4r)-4-(3-phenylmorpholine-4-carbonyl)cyclohexyl)-1,2,3,4-tetrahydroquinoline-6-sulfonamide]", "pIC50": 7.05}, {"smiles": "CC1(C)CN(C(=O)[C@H]2CC[C@H](NS(=O)(=O)c3ccc4cc(-c5ccccc5)[nH]c4c3)CC2)CCO1", "note": "[Example 464, N-((1r,4r)-4-(2,2-dimethylmorpholine-4-carbonyl)cyclohexyl)-2-phenyl-1H-indole-6-sulfonamide]", "pIC50": 7.52}, {"smiles": "COC(=O)C1CN(c2ccc3cc(S(=O)(=O)N[C@H]4CC[C@H](C(=O)N[C@H](C)c5ccc(F)cc5)CC4)ccc3n2)CCN1", "note": "(stereo partly drawn) [Example 242, methyl 4-(6-(N-((1R,4r)-4-((R)-1-(4-fluorophenyl)ethylcarbamoyl)cyclohexyl)sulfamoyl)quinolin-2-yl)piperazine-2-carboxylate]", "pIC50": 6.71}, {"smiles": "COCCNc1ccc2cc(S(=O)(=O)N[C@H]3CC[C@H](C(=O)N[C@H](C)c4ccc(F)cc4)CC3)ccc2n1", "note": "[Example 201, (1r,4R)-N-((R)-1-(4-fluorophenyl)ethyl)-4-(2-(2-methoxyethylamino)quinoline-6-sulfonamido)cyclohexanecarboxamide]", "pIC50": 7.10}, {"smiles": "C[C@@H](NC(=O)[C@H]1CC[C@H](NS(=O)(=O)c2cnc3c(c2)N(C)CCCN3C)CC1)c1ccc(F)cc1", "note": "[Example 128, (1r,4R)-4-(1,5-dimethyl-2,3,4,5-tetrahydro-1H-pyrido[2,3-b][1,4]diazepine-8-sulfonamido)-N-((R)-1-(4-fluorophenyl)ethyl)cyclohexanecarboxamide]", "pIC50": 6.84}, {"smiles": "CC(C)COC(=O)N1CCNc2ccc(S(=O)(=O)N[C@H]3CC[C@H](C(=O)N[C@H](C)c4ccc(F)cc4)CC3)cc21", "note": "[Example 217, isobutyl 7-(N-((1R,4r)-4-((R)-1-(4-fluorophenyl)ethylcarbamoyl)cyclohexyl)sulfamoyl)-3,4-dihydroquinoxaline-1(2H)-carboxylate]", "pIC50": 7.82}, {"smiles": "COc1ccc(-c2nc3ccc(S(=O)(=O)N[C@H]4CC[C@H](C(=O)OCc5ccccc5)CC4)cc3[nH]2)cc1", "note": "[Example 100, (1r,4r)-benzyl 4-(2-(4-methoxyphenyl)-1H-benzo[d]imidazole-6-sulfonamido)cyclohexanecarboxylate]", "pIC50": 6.12}, {"smiles": "C[C@H]1CN(C)CCN1C(=O)[C@H]1CC[C@H](NS(=O)(=O)c2ccc3cc(-c4ccccc4)n(C)c3c2)CC1", "note": "[Example 412, N-((1S,4r)-4-((S)-2,4-dimethylpiperazine-1-carbonyl)cyclohexyl)-1-methyl-2-phenyl-1H-indole-6-sulfonamide]", "pIC50": 6.62}, {"smiles": "CC(C)(CO)[C@@H](NC(=O)[C@H]1CC[C@H](NS(=O)(=O)c2ccc3c(Cl)c(-c4ccccc4)[nH]c3c2)CC1)c1ccccc1", "note": "[Example 478, (1r,4S)-4-(3-chloro-2-phenyl-1H-indole-6-sulfonamido)-N-((S)-3-hydroxy-2,2-dimethyl-1-phenylpropyl)cyclohexanecarboxamide]", "pIC50": "> 8.00"}, {"smiles": "C[C@@H](NC(=O)[C@H]1CC[C@H](NS(=O)(=O)c2ccc3[nH]c([C@@H]4CCCO4)nc3c2)CC1)c1ccc(F)cc1", "note": "[Example 114, (1r,4R)-N-((R)-1-(4-fluorophenyl)ethyl)-4-(2-((S)-tetrahydrofuran-2-yl)-1H-benzo[d]imidazole-5-sulfonamido)cyclohexanecarboxamide]", "pIC50": 6.53}, {"smiles": "CC(=O)Nc1ccc(-c2nc3ccc(S(=O)(=O)N[C@H]4CC[C@H](C(=O)OC(C)C)CC4)cc3[nH]2)cc1", "note": "[Example 8, (1r,4r)-isopropyl 4-(2-(4-acetamidophenyl)-1H-benzo[d]imidazole-5-sulfonamido)cyclohexanecarboxylate]", "pIC50": 7.35}, {"smiles": "CCC1(CC)CN(C(=O)[C@H]2CC[C@H](NS(=O)(=O)c3ccc4cc(-c5ccccc5)n(C)c4c3)CC2)CCO1", "note": "[Example 424, N-((1r,4r)-4-(2,2-diethylmorpholine-4-carbonyl)cyclohexyl)-1-methyl-2-phenyl-1H-indole-6-sulfonamide]", "pIC50": 7.30}, {"smiles": "COC(=O)CCc1ccc(-c2cc3ccc(S(=O)(=O)N[C@H]4CC[C@H](C(=O)N5CCCCC5)CC4)cc3n2C)cc1", "note": "[Example 357, methyl 3-(4-(1-methyl-6-(N-((1r,4r)-4-(piperidine-1-carbonyl)cyclohexyl)sulfamoyl)-1H-indol-2-yl)phenyl)propanoate]", "pIC50": 6.92}, {"smiles": "Cn1ccc2cc(S(=O)(=O)N[C@H]3CC[C@H](C(=O)N[C@H](CCO)c4ccccc4)CC3)ccc21", "note": "[Example 673, (1r,4R)-N-((R)-3-hydroxy-1-phenylpropyl)-4-(1-methyl-1H-indole-5-sulfonamido)cyclohexanecarboxamide]", "pIC50": 6.86}, {"smiles": "C[C@@H](NC(=O)[C@H]1CC[C@H](NS(=O)(=O)c2ccc3[nH]c([C@@H]4CCCN4)nc3c2)CC1)c1ccc(F)cc1", "note": "[Example 3, (1r,4R)—N—((R)-1-(4-fluorophenyl)ethyl)-4-(2-((S)-pyrrolidin-2-yl)-1H-benzo[d]imidazole-5-sulfonamido)cyclohexanecarboxamide]", "pIC50": 6.29}, {"smiles": "CC(C)(C)OC(=O)N1CCN(C(=O)[C@H]2CC[C@H](NS(=O)(=O)c3ccc4c(c3)oc3ccccc34)CC2)[C@@H](c2ccccc2)C1", "note": "[Example 263, (S)-tert-butyl 4-((1r,4S)-4-(dibenzo[b,d]furan-3-sulfonamido)cyclohexanecarbonyl)-3-phenylpiperazine-1-carboxylate]", "pIC50": 7.52}, {"smiles": "Cn1c(-c2ccccc2)cc2ccc(S(=O)(=O)N[C@H]3CC[C@H](C(=O)N[C@@H](c4ccccc4)C(C)(C)O)CC3)cc21", "note": "[Example 352, (1r,4S)-N-((S)-2-hydroxy-2-methyl-1-phenylpropy1)-4-(1-methyl-2-phenyl-1H-indole-6-sulfonamido)cyclohexanecarboxamide]", "pIC50": "> 8.00"}, {"smiles": "CCOC(=O)C1(C)CCC(NS(=O)(=O)c2ccc3c(ccn3C)c2)CC1", "note": "(stereo not shown) [Example 391, ethyl 1-methyl-4-(1-methyl-1H-indole-5-sulfonamido)cyclohexanecarboxylate]", "pIC50": 6.12}, {"smiles": "COc1ccc(-c2cc3ccc(S(=O)(=O)N[C@H]4CC[C@H](C(=O)N[C@@H](CO)C5CC5)CC4)cc3n2C)cc1", "note": "[Example 445, (1r,4R)-N-((R)-1-cyclopropyl-2-hydroxyethyl)-4-(2-(4-methoxyphenyl)-1-methyl-1H-indole-6-sulfonamido)cyclohexanecarboxamide]", "pIC50": 7.82}]}]}
